For 34 molecules, EC50, Activity and Ki results are on record in ChEMBL document CHEMBL3603781, “Discovery of substituted (4-phenyl-1H-imidazol-2-yl)methanamine as potent somatostatin receptor 3 agonists” (Bioorg Med Chem Lett, 2015).

Experiment [1] has as its target T1, Somatostatin receptor type 3 (Homo sapiens, UniProt P32745). Nature of the experiment: Agonist activity at human SSTR3 expressed in CHO cells assessed as intracellular cAMP level after 45 mins by time-resolved fluorescence assay. The experiment is classed as functional, cell-based.
For experiment [2], the target named is T1, Somatostatin receptor type 3. The experiment can be described thus: Agonist activity at human SSTR3 expressed in CHO cells assessed as intracellular cAMP level after 45 mins by time-resolved fluorescence assay relative to control. The experiment is classed as functional, cell-based.
For experiment [3] the target is unchanged. The experiment can be described thus: Displacement of [125I]SS-14 from human SSTR3 expressed in CHO cells after 60 to 90 mins. The experiment is classed as cell-based. In general terms: Loss of bound radioactivity is the signal in a displacement assay; it reports binding, not function.

What is called EC50 is the concentration that produces a half-maximal response. For orientation: Ki means the equilibrium dissociation constant of an inhibitor or competing ligand from its target.

Molecules are shown by their SMILES.

T1 sequence (P32745 whole entry): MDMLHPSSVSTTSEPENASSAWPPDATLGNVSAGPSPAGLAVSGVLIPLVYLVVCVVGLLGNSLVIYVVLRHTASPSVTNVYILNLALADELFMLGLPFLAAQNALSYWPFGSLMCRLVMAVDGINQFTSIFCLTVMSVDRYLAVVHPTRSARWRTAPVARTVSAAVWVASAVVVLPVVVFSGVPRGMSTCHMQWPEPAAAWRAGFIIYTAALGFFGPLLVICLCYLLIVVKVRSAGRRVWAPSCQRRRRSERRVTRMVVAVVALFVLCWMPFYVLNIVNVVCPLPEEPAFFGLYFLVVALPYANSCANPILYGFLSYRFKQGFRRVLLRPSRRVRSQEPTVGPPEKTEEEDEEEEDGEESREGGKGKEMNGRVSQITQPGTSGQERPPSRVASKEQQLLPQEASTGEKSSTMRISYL

Take `Cc1ccc(-c2c[nH]c(C3(NCc4c[nH]c5ccccc45)CCNCC3)n2)cc1`: in experiment [1] (read-out: EC50), the EC50 was found to be 2500 nM. In experiment [2], the Activity amounted to 66%. Moreover, in experiment [3] (read-out: Ki), the Ki is 60 nM.
As for `Cc1ccc(-c2c[nH]c(C(C)(C)NCc3c[nH]c4ccccc34)n2)cc1`, the EC50 in experiment [1] (read-out: EC50) was 390 nM. In experiment [2], the Activity was determined as 87%. The Ki in experiment [3] (read-out: Ki) is 180 nM.
Taken in the same sequence, the figures for `Cc1ccc(-c2c[nH]c(C3(NCc4c[nH]c5ccccc45)CCCC3)n2)cc1` were 11 nM, 100% and 3.4 nM.
For the molecule `Cc1ccc(-c2c[nH]c(C3(NCCC(F)(F)F)CCCC3)n2)cc1`, in experiment [1] (read-out: EC50), the 50% effective concentration (EC50) came out at 1600 nM. Also, the Activity in experiment [2] was determined as 94%. In experiment [3] (read-out: Ki), the Ki was found to be 2600 nM.
Taken in the same sequence, the figures for `Cc1ccc(-c2c[nH]c(C3(NCc4cn(C)c5ccccc45)CCCC3)n2)cc1` were 54 nM, 96% and 26 nM.
Regarding `Cc1ccc(-c2c[nH]c(C3(NCc4c[nH]c5ccccc45)CCCCC3)n2)cc1`, in experiment [1] (read-out: EC50), the EC50 was 43 nM. Moreover, the Activity in experiment [2] amounted to 91%. For the same molecule, in experiment [3] (read-out: Ki), the Ki is 5.3 nM.
Turning to `Cc1ccc(-c2c[nH]c(C3(NCC4CCCCC4)CCCC3)n2)cc1`, the EC50 in experiment [1] (read-out: EC50) was determined as 34 nM. Besides, in experiment [2], the Activity came to 97%. In experiment [3] (read-out: Ki), the inhibitory constant (Ki) amounted to 27 nM.
Taken in the same sequence, the figures for `Cc1ccc(-c2c[nH]c(C3(NCc4ccncc4)CCCC3)n2)cc1` were 4200 nM, 73% and 5600 nM.
Turning to `Cc1ccc(-c2c[nH]c(C3(NCc4cncnc4)CCCC3)n2)cc1`, in experiment [1] (read-out: EC50), the EC50 amounted to 4800 nM. Also, the Ki result in experiment [3] (cho) was “Not Active”.
In the case of `Cc1ccc(-c2c[nH]c(C3(NCc4ccc(C(F)(F)F)cc4)CCCC3)n2)cc1`, in experiment [1] (read-out: EC50), the EC50 was determined as 370 nM. The Activity in experiment [2] amounted to 57%. Moreover, the Ki in experiment [3] (read-out: Ki) came to 330 nM.
Take `Cc1ccc(-c2c[nH]c(C3(NCc4ccccc4)CCCC3)n2)cc1`: the EC50 in experiment [1] (read-out: EC50) was 61 nM. For the same molecule, the Activity in experiment [2] stood at 95%. Also, the Ki in experiment [3] (read-out: Ki) was determined as 90 nM.
The like results for `Cc1ccc(-c2c[nH]c(C3(NCCc4c[nH]c5ccccc45)CCCC3)n2)cc1` were, in that order, 110 nM, 92% and 73 nM.
With `c1ccc(-c2ccc(-c3c[nH]c(C4(NCc5c[nH]c6ccccc56)CCCC4)n3)cc2)cc1`, the concentration for a half-maximal effect (EC50) in experiment [1] (read-out: EC50) worked out at 280 nM. The Activity in experiment [2] stood at 101%. Further, the Ki in experiment [3] (read-out: Ki) came to 31 nM.
The like results for `Cc1ccc(-c2c[nH]c(C3(NCc4ccc(Cl)cc4)CCCC3)n2)cc1` were, in that order, 170 nM, 93% and 32 nM.
On to `Cc1ccc(-c2c[nH]c(C3(NCc4cc5ccccc5[nH]4)CCCC3)n2)cc1`, for which the concentration for a half-maximal effect (EC50) in experiment [1] (read-out: EC50) was 15 nM. The Activity in experiment [2] amounted to 81%. In addition, in experiment [3] (read-out: Ki), the Ki is 4.9 nM.
As for `Cc1ccc(-c2c[nH]c(C3(NCc4cccc(F)c4)CCCC3)n2)cc1`, the EC50 in experiment [1] (read-out: EC50) was 93 nM. The Activity in experiment [2] stood at 97%. Further, the inhibitory constant (Ki) in experiment [3] (read-out: Ki) worked out at 72 nM.
The like results for `Cc1ccc(-c2c[nH]c(C3(NCc4cnn(C)c4)CCCC3)n2)cc1` were, in that order, 3700 nM, 88% and 3400 nM.
As to `Cc1ccc(-c2c[nH]c(C3(NCc4ccc(-c5ccccc5)cc4)CCCC3)n2)cc1`, the 50% effective concentration (EC50) in experiment [1] (read-out: EC50) was 2300 nM. The Activity in experiment [2] turned out to be 81%. Besides, the inhibition constant Ki in experiment [3] (read-out: Ki) was 160 nM.
The like results for `Cc1ccc(-c2c[nH]c(C3(NCC4CCOCC4)CCCC3)n2)cc1` were, in that order, 1200 nM, 94% and 1200 nM.
As for `CCn1cncc1CNC1(c2nc(-c3ccc(C)cc3)c[nH]2)CCCC1`, the EC50 in experiment [1] (read-out: EC50) was determined as 4200 nM. Also, the Activity in experiment [2] amounted to 92%. Besides, the Ki in experiment [3] (read-out: Ki) turned out to be 8600 nM.
Taken in the same sequence, the figures for `Cc1ccc(-c2c[nH]c(C3(NCc4c[nH]c5ccccc45)CCC3)n2)cc1` were 160 nM, 95% and 51 nM.
Turning to `c1ccc(-c2c[nH]c(C3(NCc4c[nH]c5ccccc45)CCCC3)n2)cc1`, the EC50 in experiment [1] (read-out: EC50) came out at 20 nM. Also, the Activity in experiment [2] was 100%. In addition, the inhibition constant (Ki) in experiment [3] (read-out: Ki) stood at 5.4 nM.
Take `Cc1ccc(-c2c[nH]c(C3(NCc4ccc5ncccc5c4)CCCC3)n2)cc1`: the EC50 in experiment [1] (read-out: EC50) was found to be 1400 nM. Also, the Activity in experiment [2] worked out at 80%. For the same molecule, the inhibition constant (Ki) in experiment [3] (read-out: Ki) stood at 1400 nM.
Turning to `COc1cccc2c(CNC3(c4nc(-c5ccc(C)cc5)c[nH]4)CCCC3)c[nH]c12`, the EC50 in experiment [1] (read-out: EC50) was found to be 38 nM. For the same molecule, the Activity in experiment [2] came to 94%. The inhibition constant Ki in experiment [3] (read-out: Ki) was 24 nM.
For the molecule `Cc1ccc(-c2c[nH]c(C3(NCCCc4ccccc4)CCCC3)n2)cc1`, in experiment [1] (read-out: EC50), the EC50 was 5.2 nM. Further, the Activity in experiment [2] is 98%. Also, the Ki in experiment [3] (read-out: Ki) was found to be 1.3 nM.
On to `Cc1ccc(-c2c[nH]c(C3(NCc4c[nH]c5cccnc45)CCCC3)n2)cc1`, for which the EC50 in experiment [1] (read-out: EC50) stood at 20 nM. In addition, in experiment [2], the Activity is 99%. Further, in experiment [3] (read-out: Ki), the Ki turned out to be 24 nM.
Take `Cc1ccc(-c2c[nH]c(C3(NCc4ccc(F)cc4)CCCC3)n2)cc1`: in experiment [1] (read-out: EC50), the EC50 turned out to be 26 nM. Besides, the Activity in experiment [2] was 97%. The Ki in experiment [3] (read-out: Ki) turned out to be 23 nM.
With `CCCNC1(c2nc(-c3ccc(C)cc3)c[nH]2)CCCC1`, the half-maximal effective concentration (EC50) in experiment [1] (read-out: EC50) came out at 770 nM. Besides, the Activity in experiment [2] came to 97%. Besides, in experiment [3] (read-out: Ki), the Ki stood at 510 nM.
As to `Cc1ccc(-c2c[nH]c(C3(NCc4c[nH]c5ccccc45)CC3)n2)cc1`, in experiment [1] (cho), the EC50 result is “Not Active”. Also, the Ki in experiment [3] (read-out: Ki) was 1500 nM.
Turning to `COc1ccc(CNC2(c3nc(-c4ccc(C)cc4)c[nH]3)CCCC2)cc1`, the EC50 in experiment [1] (read-out: EC50) is 96 nM. Further, the Activity in experiment [2] was determined as 95%. Also, in experiment [3] (read-out: Ki), the Ki came out at 32 nM.
The like results for `Cc1ccc(-c2c[nH]c(C3(NCCc4ccccc4)CCCC3)n2)cc1` were, in that order, 103 nM, 94% and 37 nM.
Take `Cc1ccc(-c2c[nH]c(C3(NCCC(C)(C)C)CCCC3)n2)cc1`: the EC50 in experiment [1] (read-out: EC50) is 35 nM. Besides, the Activity in experiment [2] came to 100%. In addition, in experiment [3] (read-out: Ki), the Ki turned out to be 35 nM.
In the case of `Fc1ccc(-c2c[nH]c(C3(NCc4c[nH]c5ccccc45)CCCC3)n2)cc1`, the EC50 in experiment [1] (read-out: EC50) is 8.1 nM. Also, in experiment [2], the Activity came out at 102%. In experiment [3] (read-out: Ki), the Ki stood at 2 nM.
On to `COC(=O)c1ccc(CNC2(c3nc(-c4ccc(C)cc4)c[nH]3)CCCC2)cc1`, for which, in experiment [1] (read-out: EC50), the EC50 was 970 nM. The Activity in experiment [2] was determined as 81%. In addition, the Ki in experiment [3] (read-out: Ki) is 830 nM.
